Assay results published in US20170014409A1, “TREATING INFLAMMATION USING SERELAXIN” (priority 2012, published 2017).

What was measured:
[1] = system: sST-2; assay: Serum sST-2 measured by EIA kit (PRESAGE sST-2 assay) in heart failure subjects treated 48 hours with serelaxin or placebo; format: in vivo, human
Description: Samples were collected from subjects enrolled in a multi-center, randomized, double-blind, placebo-controlled clinical trial, which was conducted to determine the safety and efficacy of serelaxin (recombinant human serelaxin) in subjects with heart failure, as described in Teerlink et al. (supra).
Serum was collected from 218 subjects (supra) for whom a baseline level of sST-2 as well as a post-serelaxin treatment level of sST-2 was determined. sST-2 was found at a lower limit of quantitation of 3.1 ng/ml and an upper limit of quantitation of 200 ng/ml. sST-2 was measured via the EIA kit (see Example 7 for more detail) and exact clinical measurements are summarized in Table 1 (see attached Table 1).
The difference between the placebo group and each of the serelaxin dose groups was statistically significant at 48 hours.
At baseline, geometric means across treatment groups ranged from 47 ng/ml to 60 ng/ml, i.e., 55 percent of the treated subjects had sST-2 concentrations that exceeded the normal range of 33.5 ng/ml in females and 49.3 ng/ml in males. […] This established that serelaxin transiently upregulates sST-2.
FIG. 3 depicts a between-treatment analysis of sST-2 by visit, comparing a change from baseline in sST-2 geometric means between the serelaxin groups compared to the placebo group at 3 time points. […] The differences subsided so that by Day 5, changes from baseline in 3 of the 4 serelaxin groups, as well as the pooled serelaxin group, were no different than change from baseline in the placebo group. By Day 14, the changes from baseline in all of the serelaxin groups were not different from change in the placebo group. As above, this establishes that serelaxin transiently up-regulates sST-2.
sST-2 levels were measured with the EIA Test Kit & PRESAGE sST-2 Assay (from Critical Diagnostics, NY) according to the manufacturer's instructions. Alternatively, other assays could be used such as the QUANTIKINE ST2/IL-1 R4 Immunoassay (from R&D Systems, Inc., MN).
The EIA test kit is a quantitative sandwich monoclonal ELISA in a 96 well plate format for measurement of sST-2 in serum or plasma. Diluted serum from 218 subjects was loaded into the appropriate wells in the anti-ST-2 antibody coated plate and incubated for the prescribed time. Following a series of steps, where reagents were washed from the plate, and additional reagents were added and subsequently washed out, the analyte sST-2 was detected by addition of a colorimetric reagent. The resulting signal was measured spectroscopically at 450 nm. The assay was conducted according to the parameters described in the assay description of the EIA test kit with all prescribed reagents and materials.

[2] = wide range of doses; up to six months of continuous treatment; cited from earlier work

## serelaxin
[1]; 48 hours of treatment, all serelaxin dose groups, placebo decreased 30%, p<0.05 for all serelaxin groups vs. placebo
  change from baseline in sST-2 concentrations at 48 hours: increase from baseline
[1]; 48 hours, all serelaxin groups and pooled serelaxin group, between-treatment analysis (FIG. 3)
  change from baseline in sST-2 geometric means vs. placebo group at 48 hours: significantly different
[1]; Day 5, 3 of the 4 serelaxin groups and pooled serelaxin group
  change from baseline in sST-2 geometric means vs. placebo group at Day 5: no different
[1]; Day 14, all serelaxin groups
  change from baseline in sST-2 geometric means vs. placebo group at Day 14: not different
[2]
  safety in nonclinical toxicology studies: safe
